Measured values as given in US12343430B2, “Methods of improving pharmaceutical substance solubilization and products thereof” (MUDANJIANG LINRUN PHARAMA EXCIPIENTS LLC., priority 2019, dated 2025).
≈ marks a conversion by molar mass, not a printed value.

Key:
[1] = Solubility time profile of co-attrited Carbamazepine at 37° C. (Example 12); format: physicochemical; conditions: 100 mL DI water, 0.45 μm filter, UV 285 nm
From the text: All the final extrudant samples from Examples 8-11 were milled into powder and passed through an 80 mesh screen. […] At each sampling time, the solution sample was taken and filtered through a 0.45 μm syringe microfilter. […] For reference, the API Carbamazepine sample was used as control.

[2] = Solubility time profile of co-attrited Carbamazepine at 25° C., HPLC (Example 14); format: physicochemical; conditions: 500 mL DI water, paddle 100 rpm
From the text: At each time interval, a given amount of solution was sampled and tested by an HPLC method.

- Solubility ([1]; 60 min): 0.320 mg/mL (≈ 1350 µM)
- Solubility ([1]; 180 min): 0.288 mg/mL (≈ 1220 µM)
- solubility at 5 min ([1]; deionised water, thermodynamic from solid, 5 min): 0.404 mg/mL (≈ 1710 µM)
- solubility at 10 min ([1]; deionised water, thermodynamic from solid, 10 min): 0.402 mg/mL (≈ 1700 µM)
- solubility at 15 min ([1]; deionised water, thermodynamic from solid, 15 min): 0.401 mg/mL (≈ 1700 µM)
- solubility at 90 min ([1]; deionised water, thermodynamic from solid, 90 min): 0.316 mg/mL (≈ 1340 µM)
- solubility at 120 min ([1]; deionised water, thermodynamic from solid, 120 min): 0.303 mg/mL (≈ 1280 µM)
- Solubility, drug concentration ([2]; 15 minutes): 0.22568 mg/mL (≈ 955 µM)
- Solubility, drug concentration ([2]; 30 minutes): 0.20216 mg/mL (≈ 856 µM)
- solubility at 5 min ([2]; deionised water, thermodynamic from solid, 5 minutes, read-out: Solubility, drug concentration): 0.0892 mg/mL (≈ 377 µM)
- solubility at 10 min ([2]; deionised water, thermodynamic from solid, 10 minutes, read-out: Solubility, drug concentration): 0.176 mg/mL (≈ 743 µM)
- solubility at 45 min ([2]; deionised water, thermodynamic from solid, 45 minutes, read-out: Solubility, drug concentration): 0.175 mg/mL (≈ 741 µM)
- solubility at 60 min ([2]; deionised water, thermodynamic from solid, 60 minutes, read-out: Solubility, drug concentration): 0.173 mg/mL (≈ 731 µM)
Structure (SMILES): NC(=O)N1c2ccccc2C=Cc2ccccc21 [Carbamazepine API, Carbamazepine]
